Data published in patent publication EP1184374A1, “Carboxamide derivatives of pyrrolidine, piperidine and hexahydroazepine for the treatment of thrombosis disorders” (ORTHO PHARMACEUTICAL CORPORATION, priority 1996, dated 1997).

Experiments:
[1] = molecular target: GPIIb/IIIa (Homo sapiens, UniProt P05106+P08514); test: In vitro solid phase purified glycoprotein IIb/IIIa binding assay (biotinylated fibrinogen binding); conditions: for inhibition at 50 µM: read-out: Fibrinogen Binding % Inh. (50 µM)
Sequence of GPIIb/IIIa (P08514 32-887 limits assumed): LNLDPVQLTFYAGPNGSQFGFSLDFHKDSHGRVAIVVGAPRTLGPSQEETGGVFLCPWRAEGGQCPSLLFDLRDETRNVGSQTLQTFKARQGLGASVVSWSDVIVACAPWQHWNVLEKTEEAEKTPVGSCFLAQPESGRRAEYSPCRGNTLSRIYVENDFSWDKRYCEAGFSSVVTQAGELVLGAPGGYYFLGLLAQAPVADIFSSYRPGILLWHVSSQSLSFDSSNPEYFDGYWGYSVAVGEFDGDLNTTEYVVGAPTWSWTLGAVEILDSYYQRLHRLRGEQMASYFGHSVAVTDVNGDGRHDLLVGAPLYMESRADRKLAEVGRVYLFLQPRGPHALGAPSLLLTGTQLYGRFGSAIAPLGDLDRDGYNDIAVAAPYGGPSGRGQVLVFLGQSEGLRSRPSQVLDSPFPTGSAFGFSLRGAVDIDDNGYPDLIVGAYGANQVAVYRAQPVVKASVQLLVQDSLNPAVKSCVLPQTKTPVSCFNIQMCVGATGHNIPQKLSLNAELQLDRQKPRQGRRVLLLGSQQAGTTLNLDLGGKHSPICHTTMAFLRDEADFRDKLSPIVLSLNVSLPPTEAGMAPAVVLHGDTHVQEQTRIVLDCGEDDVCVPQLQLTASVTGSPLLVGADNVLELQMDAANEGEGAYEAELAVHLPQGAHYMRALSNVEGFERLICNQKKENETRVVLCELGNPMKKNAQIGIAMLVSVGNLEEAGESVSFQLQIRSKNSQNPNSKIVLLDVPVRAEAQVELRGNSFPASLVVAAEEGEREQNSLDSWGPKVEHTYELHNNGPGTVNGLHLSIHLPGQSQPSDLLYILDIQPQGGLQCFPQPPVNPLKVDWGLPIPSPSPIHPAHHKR
Sequence of GPIIb/IIIa (P08514 891-1039 partner limits assumed): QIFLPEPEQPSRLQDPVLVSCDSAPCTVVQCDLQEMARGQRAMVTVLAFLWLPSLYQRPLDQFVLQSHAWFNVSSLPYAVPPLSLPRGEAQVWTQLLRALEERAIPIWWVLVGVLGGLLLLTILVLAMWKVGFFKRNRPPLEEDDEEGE
Sequence of GPIIb/IIIa (P05106 27-788): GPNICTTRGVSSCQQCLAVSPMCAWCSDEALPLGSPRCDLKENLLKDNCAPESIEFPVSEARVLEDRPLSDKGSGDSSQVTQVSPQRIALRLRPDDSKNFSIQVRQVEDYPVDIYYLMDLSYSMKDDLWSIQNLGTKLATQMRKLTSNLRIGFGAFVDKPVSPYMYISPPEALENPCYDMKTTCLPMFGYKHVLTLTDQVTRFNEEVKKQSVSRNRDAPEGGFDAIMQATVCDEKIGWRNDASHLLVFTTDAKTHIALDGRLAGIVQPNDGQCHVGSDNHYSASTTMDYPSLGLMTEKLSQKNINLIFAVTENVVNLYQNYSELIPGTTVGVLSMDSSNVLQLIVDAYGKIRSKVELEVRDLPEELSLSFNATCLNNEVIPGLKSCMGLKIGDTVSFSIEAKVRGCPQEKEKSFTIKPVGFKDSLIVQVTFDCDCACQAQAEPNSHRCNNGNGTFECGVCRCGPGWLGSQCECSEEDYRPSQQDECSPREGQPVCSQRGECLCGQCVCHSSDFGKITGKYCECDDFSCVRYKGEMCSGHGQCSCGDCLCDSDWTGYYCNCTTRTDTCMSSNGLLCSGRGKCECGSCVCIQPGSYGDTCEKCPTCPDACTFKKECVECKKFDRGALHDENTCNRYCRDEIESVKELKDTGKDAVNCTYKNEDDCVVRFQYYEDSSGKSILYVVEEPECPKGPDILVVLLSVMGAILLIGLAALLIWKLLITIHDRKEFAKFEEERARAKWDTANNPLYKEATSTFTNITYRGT
Procedure: IN VITRO SOLID PHASE PURIFIED GLYCOPROTEIN IIB/IIIA BINDING ASSAY.
The plate is covered and incubated overnight at 4°C. The GPIIb/IIa solution is discarded and 150 µl of 5% BSA is added and incubated at RT for 1-3 h. The plate is washed extensively with modified Tyrodes buffer. Biotinylated fibrinogen (25 µl/well) at 2 x final concentration is added to the wells that contain the test compounds (25 µl/well). The plate is covered and incubated at RT for 2-4 h. Twenty minutes prior to incubation completion, one drop of Reagent A (Vecta Stain ABC Horse Radish Peroxidase kit, Vector Laboratories, Inc.) and one drop Reagent B are added with mixing to 5 mL modified Tyrodes buffer mix and let stand. The ligand solution is discarded and the plate washed (5 x 200 µl/well) with modified Tyrodes buffer. Vecta Stain HRP-Biotin-Avidin reagent (50 µl/well, as prepared above) is added and incubated at RT for 15 min. The Vecta Stain solution is discarded and the wells washed (5 x 200 µl/well) with modified Tyrodes buffer. Developing buffer (10 mL of 50 mM citrate/phosphate buffer @ pH 5.3, 6 mg o-phenylenediamine, 6 µl 30% H2O2; 50 µl/well) is added and incubated at RT for 3-5 min, and then 2N H2SO4 (50 µl/well) is added. The absorbance is read at 490 nm.

[2] = system: gel-filtered platelets; test: In vitro inhibition of thrombin-induced gel-filtered platelet aggregation; format: cell-based; conditions: Homo sapiens; for inhibition at 50 µM: read-out: Platelet Aggregation % Inh. (50µM)
Procedure: IN VITRO INHIBITION OF THROMBIN-INDUCED GEL-FILTERED PLATELET AGGREGATION ASSAY.
The percentage of platelet aggregation is calculated as an increase in light transmission of compound-treated platelet concentrate vs. control-treated platelet concentrate. Human blood is obtained from drug free, normal donors into tubes containing 0.13M sodium citrate. Platelet rich plasma (PRP) is collected by centrifugation of whole blood at 200 x g for 10 min at 25°C. The PRP (5 mL) is gel filtered through Sepharose 2B (bed volume 50 mL), and the platelet count is adjusted to 2x10^7 platelets per sample. The following constituents are added to a siliconized cuvette: concentrated platelet filtrate and Tyrode's buffer (0.14M NaCl, 0.0027MKCl, 0.012M NaHCO3, 0.76 mM Na2HPO4, 0.0055M glucose, 2 mg/mL BSA and 5.0mM HEPES @ pH 7.4) in an amount equal to 350 µl, 50 µl of 20 mM calcium and 50 µl of the test compound. Aggregation is monitored in a BIODATA aggregometer for the 3 min following the addition of agonist (thrombin 50 µl of 1 unit/mL).

[3] = system: collagen- or ADP-induced ex vivo platelet aggregation; test: Ex vivo dog study (platelet aggregation, hemodynamics, bleeding time, coagulation, cell counts); format: in vivo, dogs
Procedure: Adult mongrel dogs (8-13 kg) were anesthetized with sodium pentobarbital (35 mg/kg, i.v.) and artificially respired. Arterial blood pressure and heart rate were measured using a Millar catheter-tip pressure transducer inserted in a femoral artery. Another Millar transducer was placed in the left ventricle (LV) via a carotid artery to measure LV end diastolic pressure and indices of myocardial contractility. A lead II electrocardiogram was recorded from limb electrodes. Catheters were placed in a femoral artery and vein to sample blood and infuse drugs, respectively. Responses were continuously monitored using a Modular Instruments data aquisition system.
Arterial blood samples (5-9 ml) were withdrawn into tubes containing 3.8% sodium citrate to prepare platelet rich plasma (PRP) and to determine effects on coagulation parameters: prothrombin time (PT) and activated partial thromboplastin time (APTT). Separate blood samples (1.5 ml) were withdrawn in EDTA to determine hematocrit and cell counts (platelets, RBC's and white cells). Template bleeding times were obtained from the buccal surface using a symplate incision devise and Whatman filter paper.
Aggregation of PRP was performed using a BioData aggregometer. Aggregation of whole blood used a Chronolog impedance aggregometer. PT and APTT were determined on either a BioData or ACL 3000+ coagulation analyser. Cells were counted with a Sysmex K-1000.
Compounds were solubilized in a small volume of dimethylformamide (DMF) and diluted with saline to a final concentration of 10% DMF. Compounds were administered by the intravenous route with a Harvard infusion pump. Doses was administered over a 15 min interval at a constant rate of 0.33 ml/min. Data were obtained after each dose and in 30 min intervals following the end of drug administration. Oral doses were administered as aqueous solutions via syringe.

Compound | inhibition at 50 µM [1] [%] | IC50 [2] [nM] | IC50 [1] [nM] | inhibition at 50 µM [2] [%] | Duration of >50% inhibition of collagen- or ADP-induced ex vivo platelet aggregation ([3]; intravenous dosing 1 mpk) [min] | Duration of >50% inhibition of collagen- or ADP-induced ex vivo platelet aggregation ([3]; oral dosing 10 mpk) [min]
CC(C)(C)C#CC(CC(=O)O)NC(=O)C1CCCN(C(=O)CCC2CCNCC2)C1 (single isomer, unassigned) [Compound 19] | 99 | 79 | 21 | 92.1 | 30 | 90
O=C(O)CC(NC(=O)C1CCCN(C(=O)CCC2CCNCC2)C1)c1ccccc1 (stereo not drawn) [Compound 1, N-3-(4-Piperidinepropionyl)-nipecotyl-(3-amino-3-phenyl) propionic acid] | 95 | 3600 | 3 | 83 | – | –
COC(=O)[C@@H](CC(=O)O)NC(=O)C1CCCN(C(=O)OCC2CCNCC2)C1 (stereo partly drawn) [Compound 3, N-(4-Piperidinemethyloxycarbonyl)-nipecotyl-D-aspartic acid α-methyl ester] | 81 | > 100000 | – | 26.2 | – | –
CN1CCC(CCC(=O)N2CCCC(C(=O)NCCC(=O)O)C2)CC1 (stereo not drawn) [Compound 7, N-3-(4-N-Methyl-piperidinepropionyl)-nipecotyl-3-aminopropionic acid] | 100 | 2400 | 6 | 75.6 | – | –
O=C(O)C1CN(C(=O)C2CCCN(C(=O)CCC3CCNCC3)C2)CCC1=O (stereo not drawn) [Compound 8, N-3-(4-Piperidinepropionyl)-nipecotyl-4-oxonipecotic acid] | 93 | – | 332 | – | – | –
C[Si](C)(C)C#CC(CC(=O)O)NC(=O)C1CCCN(C(=O)CCC2CCNCC2)C1 (stereo not drawn) [Compound 9, N-3-(4-Piperidinepropionyl)-nipecotyl-[3-amino-3-(2-trimethylsilylethynyl)]propionic acid] | 99 | 370 | 2 | 90.9 | – | –
NCCCCCC(=O)N1CCCC(C(=O)NC(CC(=O)O)c2cccnc2)C1 (stereo not drawn) [Compound 10, N-(6-Aminocaproyl)-nipecotyl-3-amino-3-(3-pyridyl)propionic acid] | 91.3 | 1600 | – | 85 | – | –
O=C(O)CCNC(=O)C1CCCN(S(=O)(=O)CCC2CCNCC2)C1 (stereo not drawn) [Compound 12, N-3-(4-Piperidineethanesulfonyl)-nipecotyl-3-aminopropionic acid] | 97 | 15500 | 25 | 88 | – | –
O=C(NCCc1nnn[nH]1)C1CCCN(C(=O)CCC2CCNCC2)C1 (stereo not drawn) [Compound 13, N-3-(4-Piperidinepropionyl)-nipecotyl-5H-(2-aminoethyl)tetrazole] | 95 | 25500 | 1390 | 67 | – | –

Now from value to compound, other results behind:

inhibition at 50 µM [1] [%] | IC50 [2] [nM] | IC50 [1] [nM] | Compound | inhibition at 50 µM [2] [%] | Duration of >50% inhibition of collagen- or ADP-induced ex vivo platelet aggregation ([3]; intravenous dosing 1 mpk) [min] | Duration of >50% inhibition of collagen- or ADP-induced ex vivo platelet aggregation ([3]; oral dosing 10 mpk) [min]
79.6 | 1550 | – | O=C(O)C(O)CNC(=O)[C@@H]1CCCN(C(=O)CCC2CCNCC2)C1 (single isomer, unassigned) [Compound 11, N-3-(4-Piperidinepropionyl)-R-(-)-nipecotyl-(3-amino-2-hydroxy) propionic acid] | 99.2 | – | –
93 | 54000 | 27 | CC(CNC(=O)C1CCCN(C(=O)NCC2CCNCC2)C1)C(=O)O (stereo not drawn) [Compound 2, N-(4-Piperidinemethylaminocarbonyl)-nipecotyl-(3-amino-2-methyl) propionic acid] | 95.7 | – | –
89.9 | 26000 | 121 | Cc1ccc(C(CC(=O)O)NC(=O)C2CCN(C(=O)CCC3CCNCC3)C2)cc1 (stereo not drawn) [Compound 4, N-3-(4-Piperidinepropionyl)-pyrrolidine-3-carboxy-[3-amino-3-(4-tolyl)]propionic acid] | 81 | – | –
89 | 10000 | 12 | CC(CC(=O)O)NC(=O)C1CCN(C(=O)CCC2CCNCC2)CC1 (stereo not drawn) [Compound 5, N-3-(4-Piperidinepropionyl)-isonipecotyl-(3-amino-3-methyl) propionic acid] | 100 | – | –
90.7 | 73000 | 197 | O=C(O)CC(NC(=O)C1CCN(C(=O)CCC2CCNCC2)CC1)c1ccc(C(=O)O)cc1 (stereo not drawn) [Compound 6] | 71.2 | – | –
99 | 910 | 4 | CN1CCN(CCC(=O)N2CCCC(C(=O)NC(CC(=O)O)c3ccc4c(c3)OCO4)C2)CC1 (stereo not drawn) [Compound 14, N-3-(4-N-Methyl-piperazinepropionyl)-nipecotyl-[3-amino-3-(3,4-methylenedioxyphenyl)]propionic acid] | 91 | – | –
100 | 1900 | 9.1 | CN1CCN(CCC(=O)N2CCCC(C(=O)NC(CC(=O)O)c3cnc4ccccc4c3)C2)CC1 (stereo not drawn) [Compound 15, N-3-(4-N-Methyl-piperazinepropionyl)-nipecotyl-[3-amino-3-(3-quinolinyl)]propionic acid] | 92.2 | 30 | 120
96 | 450 | 5 | O=C(O)CC(NC(=O)C1CCCCN(C(=O)CCC2CCNCC2)C1)c1cnc2ccccc2c1 (stereo not drawn) [Compound 17, N-3-(4-Piperidinepropionyl)-hexahydroazepine-3-carboxy-[3-amino-3-(3-quinolinyl)]propionic acid] | 89.6 | – | –
99 | 37000 | – | O=C(O)C[C@H](NC(=O)C1CCCN(CCCC2CCNCC2)C1)c1ccc2c(c1)OCO2 (stereo partly drawn) [Compound 20, N-3-(4-Piperidinepropyl)-nipecotyl-[(S)-3-amino-3-(3,4-methylenedioxyphenyl)]propionic acid] | 89.7 | – | –
100 | 42000 | – | O=C(NC[C@@H]1NC(=O)N(Cc2ccccc2)C1=O)[C@@H]1CCCN(C(=O)CCC2CCNCC2)C1 [Compound 29, N-3-(4-Piperidinepropionyl)-R-(-)nipecotyl-aminomethyl-5-(S)-(3-N-benzyl)imidazoline-2.4-dione] | 100 | – | –
100 | 20 | – | O=C(O)C[C@H](NC(=O)[C@@H]1CCCN(C(=O)CCC2CCNCC2)C1)c1cncc(Br)c1 [Compound 32, N-3-(4-Piperidinepropionyl)-R-(-)nipecotyl-[(S)-3-amino-3-(5-bromo-3-pyridyl)] propionic acid] | – | – | –
100 | 300 | – | N=CN1CCC(CCC(=O)N2CCCC(C(=O)NC(CC(=O)O)c3cccnc3)C2)CC1 [Compound 33, N-3-(4-Formamidinopiperidinepropionyl)-R-(-)nipecotyl-[(S)-3-amino-3-(3-pyridyl)] propionic acid] | 100 | – | –
